Assay results taken from patent US9018414B2, “Substituted 3-phenylpropionic acids and the use thereof” (Bayer Intellectual Property GmbH, priority 2009, dated 2015).

Tests used:
[1] = molecular target: T1, haem-free recombinant soluble guanylate cyclase (sGC) (Rattus norvegicus, UniProt P20595); experiment: Stimulation of recombinant soluble guanylate cyclase (sGC) in vitro, haem-free enzyme; assay type: biochemical
T1 construct: made in house; host or cells: Sf9 insect cells (baculovirus)
T1 sequence (P20595 1-619): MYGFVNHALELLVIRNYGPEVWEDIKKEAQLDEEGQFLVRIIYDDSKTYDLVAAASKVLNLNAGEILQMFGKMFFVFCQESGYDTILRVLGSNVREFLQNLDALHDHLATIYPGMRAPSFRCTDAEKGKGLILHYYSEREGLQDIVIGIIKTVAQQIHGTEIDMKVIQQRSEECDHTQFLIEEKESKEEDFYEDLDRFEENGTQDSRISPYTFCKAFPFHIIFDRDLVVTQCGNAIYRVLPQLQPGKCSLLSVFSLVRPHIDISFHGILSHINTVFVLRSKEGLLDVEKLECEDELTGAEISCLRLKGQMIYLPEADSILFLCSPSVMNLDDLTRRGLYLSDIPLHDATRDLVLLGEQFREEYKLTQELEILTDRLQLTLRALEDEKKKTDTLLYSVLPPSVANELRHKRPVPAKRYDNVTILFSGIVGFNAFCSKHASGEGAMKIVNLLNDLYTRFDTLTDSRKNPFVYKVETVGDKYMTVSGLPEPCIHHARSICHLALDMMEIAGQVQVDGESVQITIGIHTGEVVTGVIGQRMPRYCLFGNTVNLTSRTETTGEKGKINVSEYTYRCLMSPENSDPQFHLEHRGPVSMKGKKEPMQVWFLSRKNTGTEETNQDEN
T1 sequence (P19686 1-690 partner): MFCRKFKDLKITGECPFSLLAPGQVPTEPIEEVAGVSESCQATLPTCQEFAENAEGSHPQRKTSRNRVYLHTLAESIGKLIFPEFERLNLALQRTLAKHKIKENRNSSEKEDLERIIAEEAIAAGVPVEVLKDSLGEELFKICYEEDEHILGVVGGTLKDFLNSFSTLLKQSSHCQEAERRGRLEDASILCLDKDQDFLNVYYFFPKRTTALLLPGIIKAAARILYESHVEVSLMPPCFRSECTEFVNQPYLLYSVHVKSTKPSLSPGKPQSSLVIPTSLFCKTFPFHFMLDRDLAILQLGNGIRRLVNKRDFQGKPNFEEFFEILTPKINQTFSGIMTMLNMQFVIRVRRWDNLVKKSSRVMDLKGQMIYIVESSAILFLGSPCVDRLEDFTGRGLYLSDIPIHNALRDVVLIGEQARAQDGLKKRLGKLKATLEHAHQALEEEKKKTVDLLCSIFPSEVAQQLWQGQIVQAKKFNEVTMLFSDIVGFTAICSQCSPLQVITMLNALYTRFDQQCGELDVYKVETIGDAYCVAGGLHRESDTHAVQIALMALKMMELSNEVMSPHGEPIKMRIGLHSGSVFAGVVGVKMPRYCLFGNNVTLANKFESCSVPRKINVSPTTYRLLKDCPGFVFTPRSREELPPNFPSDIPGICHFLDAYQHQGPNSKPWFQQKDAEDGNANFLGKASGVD
Procedure: (§1) Investigations on the stimulation of recombinant soluble guanylate cyclase (sGC) by the compounds according to the invention with and without sodium nitroprusside, and with and without the haem-dependent sGC inhibitor 1H-1,2,4-oxadiazolo-(4,3a)-quinoxalin-1-one (ODQ) are carried out by the method described in detail in the following reference: M. Hoenicka, E. M. Becker, H. Apeler, T. Sirichoke, H. Schroeder, R. Gerzer and J.-P. Stasch, “Purified soluble guanylyl cyclase expressed in a baculovirus/Sf9 system: Stimulation by YC-1, nitric oxide, and […]”, J. Mol. Med. 77 (1999), 14-23. The haem-free guanylate cyclase is obtained by adding Tween 20 to the sample buffer (0.5% in the final concentration).
(§2) The activation of sGC by a test substance is reported as x-fold stimulation of the basal activity.

[2] = test system: recombinant guanylate cyclase reporter cell line; experiment: Action at recombinant guanylate cyclase reporter cell line (CHO reporter cell); assay type: cell-based; conditions: MEC = minimal effective concentration; read-out: sGC-activating activity in the CHO reporter cell in vitro, MEC
Procedure: The cellular action of the compounds according to the invention is determined at a recombinant guanylate cyclase reporter cell line, as described in F. Wunder et al., Anal. Biochem. 339, 104-112 (2005).

[3] = molecular target: T2, soluble guanylate cyclase (sGC) (Rattus norvegicus, UniProt P20595); experiment: Stimulation of sGC enzyme activity (PPi detection, luciferase luminescence); assay type: biochemical; conditions: for EC50: EC50 = concentration at 50% of maximum efficacy, read-out: Activating action at the sGC enzyme in vitro, EC50; for Activating action at the sGC enzyme in vitro, MEC: MEC = minimal effective concentration
T2 construct: made in house; host or cells: Sf9 insect cells (baculovirus)
T2 sequence (P20595 1-619): T1 sequence (P20595 1-619)
T2 sequence (P19686 1-690 partner): T1 sequence (P19686 1-690 partner)
Procedure: Soluble guanylate cyclase (sGC) converts on stimulation GTP into cGMP and pyrophosphate (PPi). PPi is detected with the aid of the assay described below. The signal produced in the assay increases as the reaction progresses and serves as a measure of the sGC enzyme activity under the given stimulation.
To carry out the assay, 29 μl of enzyme solution [0-10 nM soluble guanylate cyclase (prepared according to Hönicka et al., J. Mol. Med. 77, 14-23 (1999)) in 50 mM TEA, 2 mM MgCl2, 0.1% BSA (fraction V), 0.005% Brij®, pH 7.5] are initially introduced into a microplate, and 1 μl of the substance to be tested (as a serially diluted solution in DMSO) is added. The mixture is incubated at room temperature for 10 min. Then 20 μl of detection mix [1.2 nM Firefly Luciferase (Photinus pyralis luciferase, Promega), 29 μM dehydroluciferin (prepared according to Bitler & McElroy, Arch. Biochem. Biophys. 72, 358 (1957)), 122 μM luciferin (Promega), 153 μM ATP (Sigma) and 0.4 mM DTT (Sigma) in 50 mM TEA, 2 mM MgCl2, 0.1% BSA (fraction V), 0.005% Brij®, pH 7.5] are added. The enzyme reaction is started by adding 20 μl of substrate solution [1.25 mM guanosine 5′-triphosphate (Sigma) in 50 mM TEA, 2 mM MgCl2, 0.1% BSA (fraction V), 0.005% Brij®, pH 7.5] and measured continuously in a luminometer. The extent of the stimulation by the substance to be tested can be determined relative to the signal of the unstimulated reaction.
The activation of haem-free guanylate cyclase is examined by addition of 25 μM of 1H-1,2,4-oxadiazolo[4,3-a]quinoxalin-1-one (ODQ) to the enzyme solution and subsequent incubation for 30 minutes, and compared to the stimulation of the native enzyme.

[4] = molecular target: T3, haem-containing recombinant soluble guanylate cyclase (sGC) (Rattus norvegicus, UniProt P20595); experiment: Stimulation of recombinant soluble guanylate cyclase (sGC) in vitro, haem-containing enzyme; assay type: biochemical; conditions: for Effect of combination with the NO donor DEA/NO on sGC stimulation: haem-containing sGC
T3 construct: made in house; host or cells: Sf9 insect cells (baculovirus)
T3 sequence (P20595 1-619): T1 sequence (P20595 1-619)
T3 sequence (P19686 1-690 partner): T1 sequence (P19686 1-690 partner)
Procedure: as §1, §2

Stimulation (x-fold) of recombinant sGC, haem-free sGC, basal ([1]; 0.01 μM test compound) [x-fold]	Stimulation (x-fold) of recombinant sGC, haem-free sGC, basal ([1]; 0.1 μM test compound) [x-fold]	Stimulation (x-fold) of recombinant sGC, haem-free sGC, basal ([1]; 1.0 μM test compound) [x-fold]	Stimulation (x-fold) of recombinant sGC, haem-free sGC, basal ([1]; 10 μM test compound) [x-fold]	Stimulation (x-fold) of recombinant sGC, haem-free sGC, basal ([1]; 100 μM test compound) [x-fold]	EC50 [3] [nM]	Activating action at the sGC enzyme in vitro, MEC [3] [nM]	Stimulation (x-fold) of recombinant sGC, haem-containing sGC, +0.01 μM DEA/NO ([4]; 0.01 μM test compound) [x-fold]	Stimulation (x-fold) of recombinant sGC, haem-containing sGC, +10 μM ODQ ([4]; 0.01 μM test compound) [x-fold]	Stimulation (x-fold) of recombinant sGC, haem-containing sGC, basal ([4]; 0.01 μM test compound) [x-fold]	Stimulation (x-fold) of recombinant sGC, haem-containing sGC, +0.01 μM DEA/NO ([4]; 0.1 μM test compound) [x-fold]	Stimulation (x-fold) of recombinant sGC, haem-containing sGC, +10 μM ODQ ([4]; 0.1 μM test compound) [x-fold]	Stimulation (x-fold) of recombinant sGC, haem-containing sGC, basal ([4]; 0.1 μM test compound) [x-fold]	Stimulation (x-fold) of recombinant sGC, haem-containing sGC, +0.01 μM DEA/NO ([4]; 1.0 μM test compound) [x-fold]	Stimulation (x-fold) of recombinant sGC, haem-containing sGC, +10 μM ODQ ([4]; 1.0 μM test compound) [x-fold]	Stimulation (x-fold) of recombinant sGC, haem-containing sGC, basal ([4]; 1.0 μM test compound) [x-fold]	Stimulation (x-fold) of recombinant sGC, haem-containing sGC, +0.01 μM DEA/NO ([4]; 10 μM test compound) [x-fold]	Stimulation (x-fold) of recombinant sGC, haem-containing sGC, +10 μM ODQ ([4]; 10 μM test compound) [x-fold]	Stimulation (x-fold) of recombinant sGC, haem-containing sGC, basal ([4]; 10 μM test compound) [x-fold]	SMILES	minimal effective concentration [2] [µM]	other results
1.7 ± 0.3	1.8 ± 0.2	3.0 ± 0.5	17.9 ± 3.1	40.3 ± 6.6	290	10	5.9 ± 0.7	4.6 ± 0.8	1.1 ± 0.1	7.4 ± 0.8	4.5 ± 0.6	1.0 ± 0.1	8.5 ± 0.7	4.8 ± 0.8	0.9 ± 0.1	11.5 ± 0.9	16.3 ± 1.3	3.1 ± 0.3	C[C@H]([C@H](C(=O)Nc1cc(CCC(=O)O)ccc1Cl)c1ccc(Cl)cc1)C(F)(F)F [Example 15, (+)-3-(4-Chloro-3-{[(2S,3R)-2-(4-chlorophenyl)-4,4,4-trifluoro-3-methylbutanoyl]amino}phenyl)-propanoic acid]	0.01	Stimulation (x-fold) of recombinant sGC, haem-containing sGC, +0.01 μM DEA/NO ([4]; 100 μM test compound): 45.9 ± 3.1 x-fold; Stimulation (x-fold) of recombinant sGC, haem-containing sGC, +10 μM ODQ ([4]; 100 μM test compound): 97.3 ± 7.7 x-fold; Stimulation (x-fold) of recombinant sGC, haem-containing sGC, basal ([4]; 100 μM test compound): 31.6 ± 2.6 x-fold; Effect of combination with the NO donor DEA/NO on sGC stimulation [4]: no synergistic effect
1.7 ± 0.2	2.0 ± 0.3	4.1 ± 0.3	22.9 ± 1.8	33.5 ± 3.3	130	7	9.6 ± 0.8	4.9 ± 1.2	0.7 ± 0.2	8.8 ± 1.2	5.3 ± 1.3	0.6 ± 0.1	9.8 ± 1.2	4.5 ± 1.1	0.6 ± 0.1	10.7 ± 1.0	8.3 ± 1.4	1.8 ± 0.3	C[C@H]([C@H](C(=O)Nc1cc(C[C@H](C)C(=O)O)ccc1Cl)c1ccc(Cl)cc1)C(F)(F)F [Example 17, (+)-(2S)-3-(4-Chloro-3-{[(2S,3R)-2-(4-chlorophenyl)-4,4,4-trifluoro-3-methylbutanoyl]amino}-phenyl)-2-methylpropanoic acid]	0.0048	Stimulation (x-fold) of recombinant sGC, haem-containing sGC, +0.01 μM DEA/NO ([4]; 100 μM test compound): 11.4 ± 1.2 x-fold; Stimulation (x-fold) of recombinant sGC, haem-containing sGC, +10 μM ODQ ([4]; 100 μM test compound): 15.0 ± 2.0 x-fold; Stimulation (x-fold) of recombinant sGC, haem-containing sGC, basal ([4]; 100 μM test compound): 4.9 ± 0.7 x-fold; Effect of combination with the NO donor DEA/NO on sGC stimulation [4]: no synergistic effect
